What was measured:
[1] = test system: diabetes-induced hyperfiltration; conditions: in vivo; cited from earlier work
normal and diabetic mice = conditions: repressed by insulin; cited from earlier work
insulin = insulin (Homo sapiens, UniProt P01308); conditions: cited from earlier work
type 1 diabetes = conditions: human; cited from earlier work
[2] = Serum insulin and C-peptide levels after nasal administration of combined formulations to rats; format: in vivo
Procedure: Test System—Sprague Dawley rats, females; 325 grams are used throughout this study. Rats are anesthetized by isoflurane/O2 mixture. To a first and second group of three rats each is administered vehicle containing C-peptide concentration of 1 and 10 mg/mL as described in Example 1 to which is added 0.1% benzallconium chloride as a preservative. To a third and fourth group of 3 rats each is administered vehicle containing C-peptide concentration of 1 and 10 mg/mL as described above to which is added 45 mg/mL methyl-beta-cyclodextrin (Sigma-Aldrich). […]
Analysis Procedure—The serum was frozen at approximately −70° C. in pre-labeled, plastic tubes, and tightly capped, and stored at approximately −70° C. until ready for testing. […]
Solutions prepared as described in Example 3 were administered nasally to rats and tested as described in Example 2 except with the addition that serum human insulin determinations were made using the Human Insulin ELISA Kit™ from Diagnostic Systems Laboratories, Inc, Webster, Tex. The relative molar ratios of insulin to C-peptide in serum for each formulation was calculated by taking the ratio of the insulin concentration to the C-peptide concentration at a fixed time point. In Table 2 below, ratios of the concentrations of insulin and C-peptide for concentrations measured at two time points, namely 20 min. and 40 min. post nasal instillation. […]

islet cell = conditions: cited from earlier work
[3] = test system: patients with early-stage type 1 diabetic neuropathy; conditions: treatment for 6 months; cited from earlier work
[4] = test system: rat model of type 1 diabetes; conditions: cited from earlier work
[5] = in vivo, inhaled or intranasal; cited from earlier work

insulin, sequence (P01308 25-54 limits assumed, species assumed): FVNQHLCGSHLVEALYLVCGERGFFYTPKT
insulin, sequence (P01308 90-110 limits assumed, species assumed): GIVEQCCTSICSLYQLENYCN

| Substance | effect on diabetes-induced hyperfiltration, renal hypertrophy and albuminuria [1] | antithrombotic effects (normal and diabetic mice) | effect on insulin aggregation (insulin) | effect on diabetes-induced renal and nerve dysfunction (type 1 diabetes) | rate of absorption relative to insulin [2] | effect on islet cell apoptosis (islet cell) | effect on sensory nerve function [3] | effect on neuropathy [4] | systemic bioavailability by intranasal route [5] |
| --- | --- | --- | --- | --- | --- | --- | --- | --- | --- |
| EVARQ | reduce diabetes-induced hyperfiltration, as well as renal hypertrophy and albuminuria |  |  |  |  |  |  |  |  |
| Proinsulin C-Peptide (55-89), human | reduce diabetes-induced hyperfiltration, as well as renal hypertrophy and albuminuria | exerts antithrombotic effects | elicit disaggregation of insulin | amelioration of diabetes-induced renal and nerve dysfunction | slightly, but not significantly, more rapidly than insulin | decreases islet cell apoptosis | improved sensory nerve function | improves neuropathy |  |
| salmon calcitonin |  |  |  |  |  |  |  |  | 3% |
